The values below come from patent US9901638B2, “Composition and method for treating an autoimmune disease” (RedHill Biopharma Ltd., priority 2011, dated 2018).

This experiment has as its system EAE relapse (remitting-relapsing MS model). Put plainly: EAE relapse study (PLP139-151/CFA), therapeutic treatment. The note with it: groups of 15; treatment from enrolment to Day 39; vehicle group 8 mice; FTY-720 3 mg/kg p.o. QD, RHB-104 p.o. BID. The class given is in vivo. The source says: Disease was induced by immunizing mice on Day 0 with PLP139-151 peptide emulsified in complete Freund's adjuvant (CFA).
To assess disease development, mice were weighed three times per week (Monday, Wednesday and Friday) from the time of immunization and scored daily for clinical signs of EAE starting on Day 9.
Enrollment of mice into groups occurred on the second day of clinical signs of EAE for each mouse. Mice were enrolled into treatment groups as they develop signs of EAE (rolling enrolment).
45 mice were enrolled into 3 groups of 15 and the treatment started on the day of enrolment. Assignment was balanced to achieve similar scores between the groups at enrolment.
Group 1—Vehicle (PBS), p.o., BID, 5 mL/kg (negative control)
Group 2—treated with FTY-720 (Fingolimod, Gilenya) 3 mg/kg, p.o., QD (a drug used for treatment of MS and used as a positive control)
Group 3—treated with RHB-104, p.o., BID, 5 mL/kg
Treatment started on the day of enrolment and continued until Day 39.
All dosing was performed at the same time (+/−1 hour) each day. […]
Mice were scored daily from Day 9 to Day 40, and body weight was measured three times/week (Monday, Wednesday and Friday), starting before immunization (Day −1). […]
Readouts were EAE scores on the scale 0-5 in 0.5 unit increments, and changes in body weight.
EAE was scored on scale 0 to 5 as described above.

Turning to `CCCCCCCCc1ccc(CCC(N)(CO)CO)cc1` [FTY-720, Fingolimod], the “Number of mice showing relapse” value worked out at 2 mice.
